Experimental data taken from patent US11834453B2, “Substituted pyrimido[5,4-d]pyrimidines as HER2 inhibitors” (Array BioPharma Inc., priority 2020, dated 2023).

Legend:
[1] = target: ErbB2 insYVMA (HER2-YVMA, SEQ ID NO: 2) (Homo sapiens, UniProt P04626, INS775YVMA/P1170A); assay: biochemical; conditions: ErbB2 insYVMA enzyme assay; read-out: Assay 1 IC50
EGFR = EGFR (Homo sapiens (Human), UniProt P00533); assay: ErbB enzyme assay (CisBio HTRF KinEASE-TK), Assay 3; assay type: biochemical
Outline: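 HTRF KinEASE-TK assay: kinase with 250 nM biotinylated TK-substrate and 1 mM ATP in 25 mM HEPES pH 7.4, 10 mM MgCl2, 0.01% Triton X-100, 2% DMSO, 30 min at 22 °C. Quenched with Sa-XL665/TK-Ab-Cryptate, read after 1 h. IC50 from 4-parameter fit of percent of control.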

[2] = target: ErbB2 with Exon 20 YVMA insertion (HER2-YVMA) (Homo sapiens (Human), UniProt P04626, INS775YVMA); assay: Cellular phosphorylation assay, constitutive ErbB2 phosphorylation (Y1196) in engineered NIH 3T3 cells, Assay 4; assay type: cell-based
Chain of ErbB2 with Exon 20 YVMA insertion (HER2-YVMA) (P04626 other isoform, or with tags, fused parts or gaps ins YVMA behind 775): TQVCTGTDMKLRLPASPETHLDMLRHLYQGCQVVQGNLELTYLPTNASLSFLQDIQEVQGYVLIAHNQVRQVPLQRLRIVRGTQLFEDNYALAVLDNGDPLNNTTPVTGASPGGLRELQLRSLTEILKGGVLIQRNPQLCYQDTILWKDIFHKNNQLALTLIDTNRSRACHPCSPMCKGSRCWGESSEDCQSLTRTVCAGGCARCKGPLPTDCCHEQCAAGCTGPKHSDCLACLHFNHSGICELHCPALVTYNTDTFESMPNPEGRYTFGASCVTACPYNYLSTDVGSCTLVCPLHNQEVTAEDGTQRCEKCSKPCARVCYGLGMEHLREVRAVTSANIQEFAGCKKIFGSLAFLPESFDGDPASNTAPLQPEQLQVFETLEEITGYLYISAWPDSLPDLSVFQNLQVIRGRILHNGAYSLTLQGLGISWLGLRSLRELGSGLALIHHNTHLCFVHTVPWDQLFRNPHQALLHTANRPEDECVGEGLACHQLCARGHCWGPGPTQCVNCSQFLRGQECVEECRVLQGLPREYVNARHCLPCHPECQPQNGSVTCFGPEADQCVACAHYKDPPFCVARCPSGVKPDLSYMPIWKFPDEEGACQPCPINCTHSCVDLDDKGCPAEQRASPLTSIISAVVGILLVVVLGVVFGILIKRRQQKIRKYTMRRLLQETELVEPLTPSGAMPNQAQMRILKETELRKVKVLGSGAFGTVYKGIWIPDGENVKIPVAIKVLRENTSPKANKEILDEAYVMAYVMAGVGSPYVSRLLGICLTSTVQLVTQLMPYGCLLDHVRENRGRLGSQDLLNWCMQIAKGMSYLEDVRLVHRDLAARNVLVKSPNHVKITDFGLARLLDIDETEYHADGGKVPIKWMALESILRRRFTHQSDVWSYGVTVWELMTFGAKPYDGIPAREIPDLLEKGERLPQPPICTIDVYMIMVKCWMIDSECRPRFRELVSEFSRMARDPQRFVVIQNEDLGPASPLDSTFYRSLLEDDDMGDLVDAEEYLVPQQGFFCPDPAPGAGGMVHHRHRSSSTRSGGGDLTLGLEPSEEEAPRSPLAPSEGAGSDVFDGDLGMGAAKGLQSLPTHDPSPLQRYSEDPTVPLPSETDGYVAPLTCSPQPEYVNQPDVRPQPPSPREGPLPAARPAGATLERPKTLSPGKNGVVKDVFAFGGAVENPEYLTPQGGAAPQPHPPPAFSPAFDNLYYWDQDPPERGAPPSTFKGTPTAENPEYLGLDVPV
Outline: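 Engineered NIH 3T3 cells expressing HER2-YVMA treated with compounds 1 h at 37 °C, then formaldehyde-fixed and methanol-permeabilized. pErbB2 Y1196 detected by in-cell infrared immunofluorescence, normalized to GAPDH. IC50 from the normalized curves.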

EGFR wild type (EGFR WT) = EGFR wild type (EGFR WT) (Homo sapiens (Human), UniProt P00533); assay: Cellular phosphorylation assay, EGF-stimulated EGFR phosphorylation in engineered NIH 3T3 cells, Phospho-EGFR DuoSet IC ELISA, Assay 5; assay type: cell-based
Chain of EGFR wild type (EGFR WT) (P00533 25-1210): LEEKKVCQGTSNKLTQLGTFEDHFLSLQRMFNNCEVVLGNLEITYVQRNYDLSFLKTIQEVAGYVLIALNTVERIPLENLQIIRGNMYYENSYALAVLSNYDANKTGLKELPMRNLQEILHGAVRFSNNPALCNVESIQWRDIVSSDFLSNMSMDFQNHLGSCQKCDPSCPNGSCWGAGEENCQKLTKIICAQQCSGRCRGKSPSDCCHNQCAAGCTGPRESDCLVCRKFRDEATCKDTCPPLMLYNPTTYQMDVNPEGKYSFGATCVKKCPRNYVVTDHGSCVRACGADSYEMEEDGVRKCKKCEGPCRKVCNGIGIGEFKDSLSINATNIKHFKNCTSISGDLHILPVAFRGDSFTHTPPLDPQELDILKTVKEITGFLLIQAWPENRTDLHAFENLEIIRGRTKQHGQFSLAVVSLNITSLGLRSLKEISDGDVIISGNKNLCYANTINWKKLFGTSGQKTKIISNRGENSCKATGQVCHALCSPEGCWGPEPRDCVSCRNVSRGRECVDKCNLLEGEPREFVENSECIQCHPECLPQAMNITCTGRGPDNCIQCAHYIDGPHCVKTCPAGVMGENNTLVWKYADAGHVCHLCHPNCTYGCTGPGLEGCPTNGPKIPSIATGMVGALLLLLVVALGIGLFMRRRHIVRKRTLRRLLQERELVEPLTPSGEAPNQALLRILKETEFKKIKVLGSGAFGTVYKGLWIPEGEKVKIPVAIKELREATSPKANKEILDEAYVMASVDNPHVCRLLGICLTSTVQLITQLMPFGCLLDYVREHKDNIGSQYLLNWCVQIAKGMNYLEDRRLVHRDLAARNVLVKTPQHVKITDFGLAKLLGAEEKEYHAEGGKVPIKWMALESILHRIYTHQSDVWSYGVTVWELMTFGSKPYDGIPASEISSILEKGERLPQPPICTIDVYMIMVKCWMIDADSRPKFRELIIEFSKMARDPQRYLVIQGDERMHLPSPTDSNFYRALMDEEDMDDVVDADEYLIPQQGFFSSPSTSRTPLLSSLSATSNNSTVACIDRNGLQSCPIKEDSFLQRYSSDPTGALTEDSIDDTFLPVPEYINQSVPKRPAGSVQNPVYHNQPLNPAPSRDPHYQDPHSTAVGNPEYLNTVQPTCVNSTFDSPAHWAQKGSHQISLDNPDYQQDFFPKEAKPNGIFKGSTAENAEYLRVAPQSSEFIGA
Protocol: NIH 3T3 cells were engineered to express EGFR wild type (EGFR WT; Assay 5, no footnote) with constructs obtained from GenScript and grown in DMEM supplemented with 10% fetal bovine serum and 15 μg/ml blasticidin. Cells were plated in 96-well plates at 20,000 cells/well and allowed to attach overnight at 37° C./5% CO2. Serially diluted compounds were added to the plates for 1 hour at 37° C./5% CO2. EGFR WT cells were stimulated with 100 ng/ml rEGF for an additional 10 minutes at 37° C./5% CO2. After compound incubation, medium was removed from the cells, which were then lysed in 100 μL/well lysis buffer according to the manufacturer's protocol (R&D Systems, DYC1095, Human Phospho-EGFR DuoSet IC ELISA). Same protocol was followed to determine the total levels of phospho-EGFR by measuring the optical density of each well using a VersaMax microplate reader. Curves were then generated and IC50 values calculated.

ErbB2 WT = ErbB2 WT (Homo sapiens (Human), UniProt P04626); assay: ErbB enzyme assay (CisBio HTRF KinEASE-TK), Assay 2; assay type: biochemical
Chain of ErbB2 WT (P04626 23-1255): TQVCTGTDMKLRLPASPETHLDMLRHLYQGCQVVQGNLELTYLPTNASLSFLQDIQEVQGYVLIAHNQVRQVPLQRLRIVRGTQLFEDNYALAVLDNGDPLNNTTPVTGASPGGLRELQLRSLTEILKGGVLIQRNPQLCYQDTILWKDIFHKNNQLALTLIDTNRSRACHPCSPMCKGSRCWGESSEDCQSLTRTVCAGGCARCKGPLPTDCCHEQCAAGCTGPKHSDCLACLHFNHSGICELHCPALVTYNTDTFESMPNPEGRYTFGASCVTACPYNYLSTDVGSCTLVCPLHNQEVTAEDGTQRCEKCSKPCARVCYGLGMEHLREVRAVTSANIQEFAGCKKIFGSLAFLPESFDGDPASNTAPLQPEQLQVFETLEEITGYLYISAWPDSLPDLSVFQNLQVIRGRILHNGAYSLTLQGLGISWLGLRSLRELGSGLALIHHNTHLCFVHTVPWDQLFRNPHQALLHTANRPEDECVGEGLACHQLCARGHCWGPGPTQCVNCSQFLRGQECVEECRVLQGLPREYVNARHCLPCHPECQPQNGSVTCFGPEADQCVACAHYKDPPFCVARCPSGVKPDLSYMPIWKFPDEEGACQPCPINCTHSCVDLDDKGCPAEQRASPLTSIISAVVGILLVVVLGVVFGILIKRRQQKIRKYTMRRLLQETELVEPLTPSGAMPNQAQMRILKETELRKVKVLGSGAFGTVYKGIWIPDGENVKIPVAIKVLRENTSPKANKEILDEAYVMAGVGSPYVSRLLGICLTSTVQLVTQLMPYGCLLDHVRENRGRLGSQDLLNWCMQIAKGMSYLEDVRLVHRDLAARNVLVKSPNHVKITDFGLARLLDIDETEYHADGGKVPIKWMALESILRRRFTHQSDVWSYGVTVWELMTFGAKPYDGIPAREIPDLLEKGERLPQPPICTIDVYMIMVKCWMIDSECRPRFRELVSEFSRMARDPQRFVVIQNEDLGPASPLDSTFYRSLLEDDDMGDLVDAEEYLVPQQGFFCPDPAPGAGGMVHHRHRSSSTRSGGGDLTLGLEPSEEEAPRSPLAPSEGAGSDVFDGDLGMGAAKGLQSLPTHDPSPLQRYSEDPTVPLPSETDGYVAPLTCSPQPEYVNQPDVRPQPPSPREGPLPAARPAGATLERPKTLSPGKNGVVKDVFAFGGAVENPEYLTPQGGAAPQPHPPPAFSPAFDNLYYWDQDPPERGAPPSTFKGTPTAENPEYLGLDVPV
Outline: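 ErbB2 phosphorylates 250 nM biotin-TK substrate at 1 mM ATP in 25 mM HEPES pH 7.4, 10 mM MgCl2, 0.01% Triton X-100 and 2% DMSO, for 30 min at 22 °C. Product is detected by HTRF with Sa-XL665 and TK-Ab-Cryptate. Percent of control is set by DMSO-only wells and pre-quenched wells.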

Chain of EGFR (P00533 25-1210): as the sequence (P00533 25-1210) above

Cc1cc(Nc2ncnc3cnc(N(C)[C@H]4CN(C)C[C@H]4F)nc23)ccc1Oc1ccc2c(c1)ncn2C [Example 99, N2-((3S,4R)-4-fluoro-1-methylpyrrolidin-3-yl)-N2-methyl-N8-(3-methyl-4-((1-methyl-1H-benzo[d]imidazol-5-yl)oxy)phenyl)pyrimido[5,4-d]pyrimidine-2,8-diamine]
IC50 [1]: 17.1 nM
IC50 (EGFR): 6470 nM
IC50 [2]: 44.5 nM
IC50 (EGFR wild type (EGFR WT)): ≥ 5000 nM
IC50 (ErbB2 WT): 18 nM

Cc1cc(Nc2ncnc3cnc(N(C)CCC(C)(C)O)nc23)ccc1Oc1ccc2c(c1)ncn2C [Example 102, 2-methyl-4-(methyl(8-((3-methyl-4-((1-methyl-1H-benzo[d]imidazol-5-yl)oxy)phenyl)amino)pyrimido[5,4-d]pyrimidin-2-yl)amino)butan-2-ol]
IC50 [1]: 23.8 nM
IC50 (EGFR): 2730 nM
IC50 [2]: 9.4 nM
IC50 (EGFR wild type (EGFR WT)): ≥ 5000 nM
IC50 (ErbB2 WT): 20.7 nM

Cc1cc(Nc2ncnc3cnc(NCc4cnn(C)c4C)nc23)ccc1Oc1ccc2c(c1)ncn2C [Example 103, N2-((1,5-dimethyl-1H-pyrazol-4-yl)methyl)-N8-(3-methyl-4-((1-methyl-1H-benzo[d]imidazol-5-yl)oxy)phenyl)pyrimido[5,4-d]pyrimidine-2,8-diamine]
IC50 [1]: 20.3 nM
IC50 (EGFR): ≥ 10000 nM
IC50 [2]: 61.5 nM
IC50 (EGFR wild type (EGFR WT)): ≥ 5000 nM
IC50 (ErbB2 WT): 56.6 nM

Clc1cc(Nc2ncnc3cnc(N4CCC4)nc23)ccc1Oc1ccn2ncnc2c1 [Example 112, N-(4-([1,2,4]triazolo[1,5-a]pyridin-7-yloxy)-3-chlorophenyl)-6-(azetidin-1-yl)pyrimido[5,4-d]pyrimidin-4-amine]
IC50 [1]: 18.7 nM
IC50 (EGFR): ≥ 10000 nM
IC50 [2]: 190 nM
IC50 (EGFR wild type (EGFR WT)): ≥ 5000 nM
IC50 (ErbB2 WT): 44.1 nM

CN(c1ncc2ncnc(Nc3ccc(Oc4ccc5c(c4)ncn5C)c(Cl)c3)c2n1)[C@H]1CCOC1 [Example 117, (S)—N8-(3-chloro-4-((1-methyl-1H-benzo[d]imidazol-5-yl)oxy)phenyl)-N2-methyl-N2-(tetrahydrofuran-3-yl)pyrimido[5,4-d]pyrimidine-2,8-diamine]
IC50 [1]: 46.7 nM
IC50 (EGFR): ≥ 10000 nM
IC50 [2]: 8.3 nM
IC50 (EGFR wild type (EGFR WT)): ≥ 5000 nM
IC50 (ErbB2 WT): 93.3 nM

Cc1cc(Nc2ncnc3cnc(N4C[C@H]5C[C@@H]4CO5)nc23)ccc1Oc1ccn2ncnc2c1 [Example 121, N-(4-([1,2,4]triazolo[1,5-a]pyridin-7-yloxy)-3-methylphenyl)-6-((1R,4R)-2-oxa-5-azabicyclo[2.2.1]heptan-5-yl)pyrimido[5,4-d]pyrimidin-4-amine]
IC50 [1]: 32.4 nM
IC50 (EGFR): ≥ 10000 nM
IC50 [2]: 667 nM
IC50 (EGFR wild type (EGFR WT)): ≥ 5000 nM
IC50 (ErbB2 WT): 121 nM

CN(c1ncc2ncnc(Nc3ccc(Oc4ccn5ncnc5c4)c(Cl)c3)c2n1)[C@H]1CCOC1 [Example 133, (S)—N8-(4-([1,2,4]triazolo[1,5-a]pyridin-7-yloxy)-3-chlorophenyl)-N2-methyl-N2-(tetrahydrofuran-3-yl)pyrimido[5,4-d]pyrimidine-2,8-diamine]
IC50 [1]: 10.8 nM
IC50 (EGFR): 5720 nM
IC50 [2]: 55.4 nM
IC50 (EGFR wild type (EGFR WT)): ≥ 5000 nM
IC50 (ErbB2 WT): 26.2 nM

Cc1cc(Nc2ncnc3cnc(N4CC5CC(C4)O5)nc23)ccc1Oc1ccn2ncnc2c1 [Example 135, N-(4-([1,2,4]triazolo[1,5-a]pyridin-7-yloxy)-3-methylphenyl)-6-(6-oxa-3-azabicyclo[3.1.1]heptan-3-yl)pyrimido[5,4-d]pyrimidin-4-amine]
IC50 [1]: 26.2 nM
IC50 (EGFR): ≥ 10000 nM
IC50 [2]: 514 nM
IC50 (EGFR wild type (EGFR WT)): ≥ 5000 nM
IC50 (ErbB2 WT): 45.7 nM

Cc1cc(Nc2ncnc3cnc(N4CCN(C)[C@H](C)C4)nc23)ccc1Oc1ccn2ncnc2c1 [Example 136, (R)—N-(4-([1,2,4]triazolo[1,5-a]pyridin-7-yloxy)-3-methylphenyl)-6-(3,4-dimethylpiperazin-1-yl)pyrimido[5,4-d]pyrimidin-4-amine]
IC50 [1]: 55.3 nM
IC50 (EGFR): ≥ 10000 nM
IC50 [2]: 315 nM
IC50 (EGFR wild type (EGFR WT)): ≥ 5000 nM
IC50 (ErbB2 WT): 59.3 nM
